Measurements: US20170202826A1, “DOSAGE FORMS OF APIXABAN” (Pfizer Inc., priority 2009, published 2017)

Test: Aqueous solubility of apixaban
Assay type: physicochemical
Conditions: aqueous medium, aqueous buffer; room temperature, pH 6.8

COc1ccc(-n2nc(C(N)=O)c3c2C(=O)N(c2ccc(N4CCCCC4=O)cc2)CC3)cc1 [apixaban, 1-(4-methoxyphenyl)-7-oxo-6-[4-(2-oxopiperidin-1-yl)phenyl]-4,5,6,7-tetrahydro-1H-pyrazolo[3.4-c]pyridine-3-carboxamide]
solubility: < 1 µg/mL
